Our source for the AC35 values is PubChem BioAssay AID624404 (Broad Institute, 2012).

Results filed as inconclusive are left out. Activity calls are given as the source filed them.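 Rule for the calls: active = luciferase signal rise whose fitted curve crosses a set activity limit at or below the top valid tested dose; inconclusive = flat fit with 30 to 70% rise, or poor fit; inactive = signal falling, flat within 30%, or crossing above top dose.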 Where only a bound is given, the exact number is not on record here.

The experiment has as its system D54 LucT luciferase reporter counterscreen, luminescence, 24 h. Put plainly: luciferase activators in glycosylation-insensitive reporter cells, dose response, counter-screen for N-linked glycosylation inhibitor project, D54 LucT cells, luminescence, cherry pick (AID 624404).
As to `Cc1ccc(C=Nc2ccccc2C(N)=O)cc1`, the AC35 is 2750 nM.
For `O=C(Nc1ccccc1-c1ccccc1)C1CCCC1` the value was 1220 nM.
For the compound `COc1ccccc1C(=O)Nc1ccc2c(c1)nc(CCNC(=O)c1ccco1)n2C`, the AC35 is 45.3 nM.
In the case of `Cc1cc(NCCN2CCOCC2)c2ccc3ccccc3c2n1`, the AC35 was 17.8 nM.
Consider `N=c1c(S(=O)(=O)c2ccc(Cl)cc2)cc2c(=O)n3ccccc3nc2n1CCc1ccccc1`, for which the AC35 was 564 nM.
The figure for `COc1ccccc1-c1csc(C(NC(C)=O)c2cccc(F)c2)n1` (stereo unspecified) is 590 nM; for `C=CCn1c(O)c(C(CC)=NC(C)c2ccccc2)c(=O)[nH]c1=O` (stereo unspecified) it is 1080 nM.
As to `COc1ccc(CNCC(=O)Nc2ccccc2-n2cccc2)cc1`, the AC35 is 62.9 nM.
`COc1ccc(S(=O)(=O)NCc2ccccn2)cc1NC(=O)c1ccccc1C`: the AC35 is 3110 nM.
For `Cc1nn(-c2ccccc2)c(Cl)c1/C=N/Nc1nc2ccccc2[nH]1` the value was 23.5 nM; for `Cc1cccc(C(=O)Oc2ccccc2/C=N/NC(=O)c2ccc(NC(=O)C(C)(C)C)cc2)c1`, 2690 nM.
Turning to `COc1ccc2c(c1)C(=O)N1[C@H]3c4cc(C)ccc4OC[C@@H]3[C@H](c3ccccc3)[C@]1(C)C(=O)N2`, the AC35 is 933 nM.
In the case of `C[C@@]12C(=O)Nc3cc(F)c(F)cc3C(=O)N1[C@H]1c3ccccc3OC[C@@H]1[C@@H]2c1ccccc1`, the AC35 is 746 nM.
Turning to `CCC(Cc1ccccc1)NC(=O)c1ccc2nc(N3CCOCC3)sc2c1` (stereo unspecified), the AC35 was 480 nM.
The figure for `c1ccc2c(c1)C1=NCCN1c1ccccc1-2` is 6250 nM.
The figure for `Cc1c2cnccc2c(C)c2c1oc1ccccc12` is 3320 nM.
For the compound `Cc1nc(Nc2nc(-c3ccccc3)cc(=O)[nH]2)nc2ccccc12`, the AC35 was 4910 nM.
Consider `CCc1ccc(C2c3[nH]c4ccccc4c3CCN2C(=O)c2ccc(=O)n(C)n2)cc1` (stereo unspecified), for which the AC35 was 1240 nM.
In the case of `Cc1ccc(SCC(=O)Nc2ccc(-c3nc4ccccc4[nH]3)cc2)cc1`, the AC35 is 337 nM.
On to `CCOc1cc(N2CCOCC2)c(OCC)cc1NC(=O)c1[nH]c(C)c(C(C)=O)c1C`, for which the AC35 was 10.7 nM.
As to `COc1ccc(NC(=O)c2cc(S(=O)(=O)N(C)C)ccc2N2CCCC2)cc1Cl`, the AC35 is > 19500 nM (inactive).
The figure for `Cn1c(=O)[nH]c(=O)c2c1nc(N1CCN(Cc3ccccc3)CC1)n2CCCc1ccccc1` is 465 nM; for `COc1cc2c(cc1OC)C(=O)N1[C@H]3c4cc(Cl)ccc4OC[C@@H]3[C@H](c3ccccc3)[C@]1(C)C(=O)N2` it is 449 nM.
`O=C(C=Cc1ccccc1F)c1ccccc1`: the AC35 is 199 nM.
On to `CC(C)Oc1ccc(C(=O)Nc2ccc3c(c2)n(C)c(=O)n3C)cc1`, for which the AC35 is 5520 nM.
As to `O=C(NC1CCCC(C(F)(F)F)C1)c1ccc([N+](=O)[O-])o1` (stereo unspecified), the AC35 is 3970 nM.
The figure for `CC(=O)Nc1ccc(-c2ccnc3c2CC(C(=O)NCc2cccc(Cl)c2)O3)cc1` (stereo unspecified) is 57.6 nM; for `Cn1c(-c2ccccc2)c(/C=N/NC(=O)c2ccc(O)cc2)c2ccccc21` it is 319 nM.
The figure for `COc1ccc(OC)c(Nc2nc(-c3c(C)nc4ncccn34)cs2)c1` is 1100 nM; for `CCc1ccc(CNC(=O)Cc2ccc(NC(=O)C3=C(C)OCCS3)cc2)cc1` it is 320 nM.
On to `O=C1COc2ccc(C(=O)/C=C/c3ccccc3)cc2N1`, for which the AC35 was 641 nM.
The figure for `CCCCCCn1c(=O)n2n(c1=O)[C@@H]1CN(S(=O)(=O)c3ccc(C)cc3)C[C@]1(O)[C@@H](OC(=O)NCc1ccccc1)C2` is 717 nM; for `COc1ccc([C@@H]2[C@@H]3C(=O)N(C(C)(C)C)C(=O)[C@@H]3[C@]3(Cc4ccccc4)C(=O)N(c4cccc(Br)c4)C(=O)N23)cc1` it is 762 nM.
`Cc1ccc(C(=O)Nc2ccc(C(=O)/C=C/c3cccs3)cc2)cc1`: the AC35 was 709 nM.
`NC(=O)CC(NC(=O)Cc1ccc(Br)cc1)c1ccc(NC2CCC2)c([N+](=O)[O-])c1` (stereo unspecified): the AC35 is 1710 nM.
On to `CCOC(=O)c1c(NC(C)=O)sc2c(OCCN(CC)CC)c(Br)ccc12`, for which the AC35 was 7.67 nM.
For `Cc1noc(C)c1-c1ccc(C(=O)NCc2cccnc2)c2occc12` the value was 297 nM; for `COc1ccc(/C=N/NC(=O)c2sccc2OCc2ccc(F)cc2)cc1OC`, 952 nM; for `COC(=O)c1c(NC(=O)CN2C(=O)NC3(CCC(C)CC3)C2=O)sc2c1CCC2` (stereo unspecified), 592 nM.
Turning to `Cc1cc(=O)n2c3c(c4c(cc13)c(CN(C)C)cc(=O)n4C)OC2`, the AC35 is 31.5 nM.
Regarding `COc1cc(C#Cc2ccc3cc(CCCO)oc(=O)c3c2)cc(OC)c1`, the AC35 is 62.8 nM.
Turning to `COc1cc2c(cc1OC)C(=O)N1[C@H]3c4ccccc4OC[C@@H]3[C@H](c3ccccc3)[C@]1(C)C(=O)N2`, the AC35 is 196 nM.
Turning to `CCOC(=O)c1c(C)[nH]c(-c2csc(N)n2)c1C`, the AC35 was 787 nM.
On to `NNC(=O)c1ccc2nc(-c3ccc(Br)cc3)cn2c1`, for which the AC35 is 780 nM.
Take `COc1ccc(CC(=O)NCc2ccc(-n3cccc3)cc2)cc1OC`: the AC35 is 1610 nM.
With `COc1cc2c(cc1OC)C(c1cccs1)N(C(=O)c1cccc(S(=O)(=O)N(C)C)c1)CC2` (stereo unspecified), the AC35 is 640 nM.
Regarding `CC(C)n1c(/C=C/[C@H](O)C[C@H](O)CC(=O)O)c(-c2ccc(F)cc2)c2ccccc21`, the AC35 is 370 nM.
For `CCOC(=O)[C@H]1[C@H]2COc3ccc(Br)cc3[C@@H]2N2C(=O)c3cc(OC)c(OC)cc3NC(=O)[C@@]12C`, the AC35 is 3990 nM.
Turning to `O=C1Cc2c([nH]c3ccc(Br)cc23)-c2ccccc2N1`, the AC35 is 2.52 nM.
For `COc1cc(OC)c(N2CC(C(=O)Nc3cc(Cl)ccc3N3CCOCC3)CC2=O)cc1Cl` (stereo unspecified) the value was 1260 nM; for `CSc1ccc(/C=N/NC(=O)c2ccccc2Cl)cc1`, 1230 nM.
`Cc1cccc(N2CCN(C(=O)c3cc(S(=O)(=O)N4CCCC4)cn3C)CC2)c1C`: the AC35 is 33.3 nM.
For `CCN(CC)S(=O)(=O)c1cccc(C(=O)OCC(=O)Nc2ccc3c(c2)c2ccccc2n3CC)c1`, the AC35 is 1390 nM.
For `O=C(N/N=C\c1cn(-c2ccccc2)nc1-c1ccccc1)c1ccc(Br)o1`, the AC35 is 957 nM.
For `COc1ccc(C(=O)/C=C/c2ccccc2)c(O)c1` the value was 404 nM; for `COc1ccc(/C=C/C(=O)Oc2cccc(/C=N/NC(=O)COc3c(C)cccc3C)c2)cc1`, 3250 nM.
`OCCCN=c1cc(-c2ccccc2)oc2ccc(Cl)cc12`: the AC35 was 971 nM.
On to `CC(CC(=O)Nc1ccc2c(c1)c(=O)n(C)n2-c1cccs1)c1ccccc1` (stereo unspecified), for which the AC35 is 7420 nM.
The figure for `Cc1ccc2c(c1)C(=O)N1[C@H]3c4cc(Cl)ccc4OC[C@@H]3[C@H](c3ccccc3)[C@]1(C)C(=O)N2` is 650 nM; for `COc1ccc(NC(=O)CSc2nc3ccsc3c(=O)n2Cc2ccccn2)c(OC)c1` it is > 19500 nM (inactive); for `O=C(CCN1C(=O)/C(=C\c2ccccc2)SC1=S)N1CCCCC1` it is 6190 nM.
With `Cc1ccc(C(=O)NCc2nnc(SCC(=O)NC(C)c3ccccc3)n2C)cc1` (stereo unspecified), the AC35 was 2430 nM.
For the compound `CCOc1nc(N=C(N)N)nc2c(C)cccc12`, the AC35 was 603 nM.
Regarding `CC(=O)c1ccc(Nc2nc(-c3sc(C)nc3C)cs2)cc1`, the AC35 was 17.3 nM.
For the compound `O=C(CN1CCC(O)(c2cccc(F)c2)CC1)NCCc1c[nH]c2ccccc12`, the AC35 was 972 nM.
Consider `Cc1ccc(S(=O)(=O)c2cc3c(=O)n4ccccc4nc3n(CCc3ccccc3)c2=N)cc1`, for which the AC35 is 75.9 nM.
